Test results taken from PubChem BioAssay (NCI).
Values joined by “and” are separate entries in the source; they are usually repeats but may differ in a detail not shown here. Equal values may be shown once.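 Growth conditions: 96-well plates. Treatment: test compound, 48 hours, 5 concentrations. Analysis: linear interpolation between bracketing concentrations; unreached endpoints set to highest concentration. At the GI50, growth is halved. TGI denotes the concentration required for complete inhibition of growth.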

Tests used:
Assay in all cases: NCI tumour cell line growth inhibition, 48 h
[1] = system: 786-0 renal
[2] = system: A549 NSCLC
[3] = system: BT-549 breast
[4] = system: HL-60(TB) leukemia
[5] = system: HS 578T breast
[6] = system: KM12 colon
[7] = system: MDA-MB-231 breast
[8] = system: MOLT-4 leukemia
[9] = system: OVCAR-8 ovarian
[10] = system: SW-620 colon

`O=[N+]([O-])c1ccccc1N=Nc1c(O)[nH]c2ccccc12` gave a TGI [1] of 36.1 µM, a TGI [2] greater than 100 µM and a TGI [3] greater than 100 µM. The TGI [4] was greater than 100 µM, the TGI [5] was greater than 100 µM and the TGI [6] was greater than 100 µM. For the same compound, the TGI [7] was greater than 47.3 µM, the TGI [8] was greater than 100 µM and the TGI [9] was greater than 53.5 µM. It also gave a TGI [10] greater than 100 µM.

For `[Cu+2].[O-]c1ccc2ccccc2c1N=Nc1ccccc1.[O-]c1ccc2ccccc2c1N=Nc1ccccc1`, the GI50 [1] was 72.7 µM, the TGI [1] was greater than 100 µM and the TGI [2] was greater than 100 µM. The TGI [3] was greater than 100 µM, the TGI [4] was greater than 100 µM and the TGI [5] was greater than 100 µM. For the same compound, the GI50 [6] was greater than 100 µM, the TGI [6] was greater than 100 µM and the TGI [7] was greater than 100 µM. For the same compound, the TGI [8] was greater than 100 µM, the TGI [9] was greater than 100 µM and the TGI [10] was greater than 100 µM.

Work on `CC(=O)OC12c3ccccc3C1CCCCCC21OCCCO1` (stereo unspecified) yielded a TGI [1] greater than 100 µM, a TGI [2] greater than 100 µM and a TGI [4] greater than 100 µM. It also gave a TGI [6] greater than 100 µM, a TGI [8] greater than 100 µM and a TGI [9] greater than 100 µM.

For `Cc1ccc(C)c(NC(=O)c2cc(-c3ccc([N+](=O)[O-])cc3)nc(N)n2)c1`, the TGI [1] was greater than 100 µM, the TGI [2] was greater than 100 µM and the TGI [4] was greater than 100 µM. For the same compound, the TGI [6] was greater than 100 µM, the TGI [8] was greater than 100 µM and the TGI [9] was greater than 100 µM. For the same compound, the TGI [10] was greater than 100 µM.

In the case of `O=c1/c(=C/c2ccc(Cl)cc2Cl)sc2nc3ccccc3n12`, the TGI [1] is reported as greater than 100 µM, the TGI [2] is reported as greater than 100 µM and the TGI [4] is reported as greater than 100 µM. The TGI [6] was greater than 100 µM, the TGI [8] was greater than 100 µM and the TGI [9] was greater than 100 µM. It also gave a TGI [10] greater than 100 µM.

For `Brc1ccc([I+]c2ccc(Br)cc2)cc1`, the GI50 [1] was 1.97 µM, the TGI [1] was 11.2 µM and the GI50 [2] was 5.2 µM. The TGI [2] was 20.2 µM, the GI50 [3] was 2.02 µM and the TGI [3] was 12.3 µM. The GI50 [5] was 2.96 µM, the TGI [5] was 19.9 µM and the GI50 [6] was 1.29 µM. It also gave a TGI [6] of 2.89 µM, a GI50 [7] of 2.34 µM and a TGI [7] of 17 µM. For the same compound, the GI50 [9] was 1.08 µM, the TGI [9] was 4.01 µM and the GI50 [10] was 0.992 µM. It also gave a TGI [10] of 4.31 µM.

In the case of `Cn1c(CCC#N)nc2ccc(Br)cc2c1=O`, the TGI [1] is reported as greater than 100 µM, the TGI [2] is reported as greater than 100 µM and the TGI [4] is reported as greater than 100 µM. The TGI [6] was greater than 100 µM, the TGI [8] was greater than 100 µM and the TGI [9] was greater than 100 µM. The TGI [10] was greater than 100 µM.

Work on `COc1ccc(C(c2ccc(C(C)C)cc(=O)c2O)c2c(O)cc3oc(-c4ccccc4)cc(=O)c3c2O)cc1` (stereo unspecified) yielded a TGI [1] of 14.1 µM, a TGI [2] greater than 100 µM and a TGI [4] of 28.8 µM. The TGI [8] was 48.4 µM, the TGI [9] was greater than 100 µM and the TGI [10] was greater than 100 µM.

Compound `COc1ccc2c(c1)CC[C@@H]1[C@@H]2CC[C@@]2(C)[C@H]1CC1(CCCCC1)[C@@H]2O` has a GI50 [1] of 3.81 µM, a TGI [1] of 14.7 µM and a GI50 [2] of 5.58 µM. The TGI [2] was 26.8 µM, the GI50 [5] was 3.59 µM and the TGI [5] was 10.9 µM. It also gave a GI50 [6] of 7.91 µM, a TGI [6] of 27.3 µM and a GI50 [7] of 12.9 µM. For the same compound, the TGI [7] was 32.8 µM, the GI50 [9] was 19 µM and the TGI [9] was 41.5 µM.

`CCOC(=O)/N=C(\N)SCc1ccccc1` showed a TGI [1] greater than 100 µM, a TGI [2] greater than 100 µM and a TGI [4] greater than 100 µM. The TGI [6] was greater than 100 µM, the TGI [8] was greater than 100 µM and the TGI [9] was greater than 100 µM. It also gave a TGI [10] greater than 100 µM.

Work on `COc1cc2c(c(OC)c1OC)-c1[nH]ncc1CC2` yielded a TGI [1] greater than 100 µM, a TGI [2] greater than 100 µM and a TGI [4] greater than 100 µM. For the same compound, the TGI [6] was greater than 100 µM, the TGI [8] was greater than 100 µM and the TGI [9] was greater than 100 µM. The TGI [10] was greater than 100 µM.

Work on `COc1cc(/C=C/C(C)=O)ccc1OP(=O)(O)O` yielded a TGI [1] greater than 100 µM, a TGI [2] greater than 100 µM and a TGI [3] greater than 100 µM. The TGI [5] was greater than 100 µM, the TGI [6] was greater than 100 µM and the TGI [7] was greater than 100 µM. The TGI [8] was greater than 100 µM, the TGI [9] was greater than 100 µM and the TGI [10] was greater than 100 µM.

In the case of `COc1cc([C@@H]2c3cc4c(cc3[C@@H](NCCNCCO)[C@H]3COC(=O)[C@H]23)OCO4)cc(OC)c1O`, the TGI [1] is reported as 3.02 µM and 3.48 µM, the TGI [2] is reported as greater than 100 µM and the TGI [3] is reported as 7.03 µM and 5.49 µM. For the same compound, the GI50 [4] was 0.173 µM and 0.0466 µM, the TGI [5] was 19.2 µM and 5.4 µM and the TGI [6] was > 40.2 µM and 17.5 µM. For the same compound, the TGI [7] was 21.6 µM, the TGI [9] was > 22.4 µM and 20.8 µM and the TGI [10] was greater than 100 µM.

For `CC1(O)CC2C(CC1SCCO)C2(C)C` (stereo unspecified), the TGI [1] was greater than 100 µM, the TGI [2] was greater than 100 µM and the TGI [4] was greater than 100 µM. The TGI [6] was greater than 100 µM, the TGI [8] was greater than 100 µM and the TGI [9] was greater than 100 µM.

Work on `O=C1Nc2ccccc2C1Cc1ccccc1` (stereo unspecified) yielded a TGI [1] greater than 100 µM, a TGI [2] greater than 100 µM and a TGI [4] greater than 100 µM. It also gave a TGI [5] greater than 100 µM, a TGI [6] greater than 100 µM and a TGI [8] greater than 100 µM. It also gave a TGI [9] greater than 100 µM and a TGI [10] greater than 100 µM.

Work on `O=c1c2ccc3cccc4c(=O)cc(c5ccccc15)-c2c34` yielded a TGI [1] greater than 100 µM, a TGI [2] greater than 100 µM and a TGI [4] greater than 100 µM. The TGI [6] was greater than 100 µM, the TGI [8] was greater than 100 µM and the TGI [9] was greater than 100 µM. The TGI [10] was greater than 100 µM.

Compound `O=C1CCCC/C1=C/C=C/c1ccccc1` has a TGI [1] greater than 100 µM, a TGI [2] greater than 100 µM and a TGI [4] of 62.8 µM. For the same compound, the TGI [6] was greater than 100 µM, the TGI [8] was greater than 100 µM and the TGI [9] was greater than 100 µM. For the same compound, the TGI [10] was greater than 100 µM.

For `O=C(Nc1c(-c2nc3ccccc3[nH]2)sc(=S)n1-c1ccccc1)c1ccccc1`, the TGI [1] was greater than 100 µM, the TGI [2] was greater than 100 µM and the TGI [4] was greater than 100 µM. The TGI [6] was greater than 100 µM, the TGI [8] was greater than 100 µM and the TGI [9] was greater than 100 µM. The TGI [10] was greater than 100 µM.

For `COc1cnc2c(c1)C(=O)c1c-2n(CCCn2ccnc2)c(=O)c2cc(Cl)ccc12`, the GI50 [1] was 0.0262 µM, the TGI [1] was 0.0823 µM and the GI50 [2] was 0.0663 µM. The TGI [2] was greater than 100 µM, the GI50 [3] was 0.146 µM and the TGI [3] was greater than 100 µM. The GI50 [5] was 11.4 µM, the TGI [5] was greater than 100 µM and the GI50 [6] was 0.238 µM. For the same compound, the TGI [6] was greater than 100 µM, the GI50 [7] was 1.27 µM and the TGI [7] was greater than 100 µM. For the same compound, the GI50 [9] was 0.0389 µM, the TGI [9] was 14.3 µM and the GI50 [10] was 0.0262 µM. The TGI [10] was greater than 100 µM.

In the case of `C=CC1CC12C(=O)C1OC2(C)C2C(=O)c3c(ccc4c3ccc3ccccc34)C(=O)C12` (stereo unspecified), the GI50 [1] is reported as 38.8 µM, the TGI [1] is reported as greater than 100 µM and the GI50 [2] is reported as 95.2 µM. The TGI [2] was greater than 100 µM, the GI50 [3] was 58.9 µM and the TGI [3] was greater than 100 µM. For the same compound, the GI50 [4] was 31 µM, the TGI [4] was greater than 100 µM and the GI50 [5] was 68.1 µM. It also gave a TGI [5] greater than 100 µM, a GI50 [6] of 13.1 µM and a TGI [6] greater than 100 µM. For the same compound, the GI50 [7] was 39.1 µM, the TGI [7] was greater than 100 µM and the GI50 [8] was 30.8 µM. For the same compound, the TGI [8] was greater than 100 µM, the GI50 [9] was 64.6 µM and the TGI [9] was greater than 100 µM.

In the case of `COC(OC)c1cccc2c1C1(O)CCC3(CC21)OCCCCO3` (stereo unspecified), the TGI [1] is reported as greater than 100 µM, the TGI [2] is reported as greater than 100 µM and the TGI [4] is reported as greater than 100 µM. It also gave a TGI [6] greater than 100 µM, a TGI [8] greater than 100 µM and a TGI [9] greater than 100 µM.

With `CCCNCc1nc2ccc(Br)cc2c(=O)n1CCC` the TGI [1] was 29.5 µM, the TGI [2] was 35 µM and the TGI [4] was 30.8 µM. It also gave a TGI [6] of 29.3 µM, a TGI [8] greater than 100 µM and a TGI [9] of 26.7 µM. The TGI [10] was 28.3 µM.

`C(=C\c1csnn1)/c1cccnc1` gave a TGI [1] greater than 100 µM, a TGI [2] greater than 100 µM and a TGI [4] greater than 100 µM. The TGI [6] was greater than 100 µM, the TGI [8] was greater than 100 µM and the TGI [9] was greater than 100 µM. It also gave a TGI [10] greater than 100 µM.

For `COc1ccc2c3c1C(=O)CCC3CO2` (stereo unspecified), the TGI [1] was greater than 100 µM, the TGI [2] was greater than 100 µM and the TGI [4] was greater than 100 µM. It also gave a TGI [6] greater than 100 µM, a TGI [8] greater than 100 µM and a TGI [9] greater than 100 µM. For the same compound, the TGI [10] was greater than 100 µM.
